Experimental findings from US10231472B2, “Zilpaterol animal premix formulation” (Intervet Inc., priority 2015, dated 2019) are described below.

Structures are written as SMILES. Where a name gives a salt, the structure may show the parent alone.

The nature of data set [1]: Solubility of zilpaterol HCl in solvents. Type of data set: physicochemical. The method, then:
For some drugs that have a good solubility profile formulations can be prepared by dissolving the drug into a solvent and then mixing the resulting solution with additional excipient/carriers to prepare a suitable dosage form (premix, tablets, etc.). This approach works best when the drug concentration is very low and the drug has good solubility. If an excess amount of liquid is added during manufacture a wet mass can be formed that is difficult to process and needs to be dried to remove excess solvent. Drying adds additional cost and complexity to the manufacturing process.
(§1) However since solubility of the drug was poor in propylene glycol, a significant additional amount of propylene glycol was needed (27.6%) to fully solubilize the drug. Since propylene glycol is viscous/sticky, this larger amount of propylene glycol could not be added to the corn cob carrier without causing the product to be sticky which results in poor flow properties. To address this problem, a premix containing only 6% propylene glycol and 2% water was prepared by heating the liquid mixture of zilpaterol HCl to a high temperature and creating a supersaturation of zilpaterol HCl in the propylene glycol/water vehicle. This was successful in fully solubilizing the zilpaterol HCl without needing to add additional liquids. […] When this hot supersaturated solution is added to a dry carrier, it is easily absorbed and mixed and the combination becomes dry and free flowing. Excellent uniformity is obtained, and product safety is improved since free solid drug particles are avoided.

Data set [2] is described as follows: Stability of zilpaterol in liquid vehicles at high temperature. The format is physicochemical. The method, then: as §1
Propylene glycol is the preferred solvent.

On to `CC(C)NC1CCn2c(=O)[nH]c3cccc(c32)C1O` (centres unmarked) [Zilpaterol HCl, 4,5,6,7-tetrahydro-7-hydroxy-6-(isopropylamino) imidazo[4,5,1-jk]-[1]benzazepin-2(1H)-one], for which the “solubility of the drug in premix liquid” value in data set [1] (premix with 0.8% zilpaterol HCl, 6% propylene glycol and 2% water, without heating) is on record as “not fully soluble”. The “solubility in propylene glycol” value in data set [1] (propylene glycol) is on record as 2.9%. Also, the solubility (commonly how much of the substance goes into solution per volume) in data set [1] (water) was determined as 130 mg/mL. Further, the “stability in propylene glycol alone” value in data set [2] (after 45 days at 60° C., propylene glycol alone) worked out at 95.2%. Besides, in data set [2] (supersaturated solution in propylene glycol/water vehicle), the “stability in solution, temperature” value was ≤ 90 °C.
